The source of these data is US20030055073A1, “Remedies for sjoegren's syndrome” (priority 2000, published 2003).

The structures appear in SMILES notation.

The test system of data set [1] is NFS/sld female mice (thymic gland extracted on the 3rd day after birth; Sjögren's syndrome model). Put plainly: Gland liquid secretion after pilocarpine stimulation in model mouse of naturally crisis Sjögren's syndrome. Conditions: 5 μg/kg/day s.c. once per day from 3 to 8 week age; 8th week, 0.5 mg/kg pilocarpine hydrochloride i.p.; measured for 35 minutes at 5 minute intervals. The format is in vivo. The procedure:
(§1) NFS/sld female mice of which thymic gland have been extracted on the 3rd day after the birth have Sjögren's syndrome after 4 weeks (Journal of Immunology, 153, 2769 (1994)). The compound represented by formula (la) of the present invention was subcutaneously administered once per day (5 μg/kg/day) to the mice from 3 week age to 8 week age which were immediately before histologic grand disorder was observed. The experiment was carried out for 3 non-administered groups (pathologic control) and 5 administered groups. In the 8th week, a stimulating agent (0.5 mg/kg pilocarpine hydrochloride) was intraperitoneally administered, and an amount of salivary gland liquid and an amount of lacrimal gland liquid were measured and evaluation was carried out by tissue findings.
Tables 1 and 2 show amounts of gland liquids (salivary gland secretory liquid and lacrimal gland secretory liquid) as cumulative rates (AUC) which measured for 35 minutes at the interval of 5 minutes after the administration of the stimulating agent.

A short description of data set [2]: Toxicity: maximum tolerated dose with an intravenous injection. Conditions: mouse, in vivo, mice. The procedure:
The toxicity of the compound represented by formula (I), (IA) or (Ia) of the present invention is very low and it was confirmed that it is sufficiently safe as a medicament. For example, a maximum tolerated dose with an intravenous injection using the compound represented by formula (Ia) of the present invention is 30 mg/kg in mice.

For data set [3], the system named is NFS/sld female mice (thymic gland extracted on the 3rd day after birth; Sjögren's syndrome model). Put plainly: Laesio score by tissue findings of target organs in model mouse of Sjögren's syndrome (standard of White and Casarett). Conditions: 5 μg/kg/day s.c., 3 to 8 week age. The format is in vivo. The procedure: as §1
The score is improved at a factor of ⅓ to ½ in each gland. The score was obtained based on the standard of White and Casarett (Journal of Immunology, 112, 178 (1974)).

`C[C@H]1CC(=N)N[C@@H]2[C@H](Cl)[C@@H]21` [formula (Ia), (+)-trans-3-imino-5-methyl-7-chloro-2-azabicyclo[4.1.0]heptane]: in data set [1], the “Lacrimal gland secretory liquid after administration of stimulating agent AUC0-35 minutes” value is listed as 0.798 mm/animal weight (g) and the “Salivary gland secretory liquid after administration of stimulating agent AUC0-35 minutes” value was 15.8 μl/animal weight (g). This molecule also showed an MTD in data set [2] of 30 mg/kg. In addition, in data set [3] (each gland, score by standard of White and Casarett), the “laesio score improved at a factor of (versus non-administered group)” value was “⅓ to ½”. For the same molecule, in data set [3] (submaxillary salivary gland, sublingual gland, parotid gland, lacrimal gland, FIG. 1), the “inhibition effect on laesio for each target organ” value is listed as “significant inhibition effects on laesio”.
